Source: US20040260060A1, “Constructs modified downstreams of the initiation codon for recombinant protein” (priority 2000, published 2004)

Legend:
[1] = tested on: chloramphenicol acetyltransferase (CAT) reporter gene; test: Level of CAT expression by ELISA after IAA induction in Erlenmeyer flask cultures; format: cell-based, E. coli; details: for CAT expression: relative to wild-type vector pTEXwt = 1
Excerpt: The supernatant is marked “S”.
The results (mean±standard deviation) were obtained on two independent experiments. […]
The methods for determining the expression are those used in the examples above.

[2] = tested on: chloramphenicol acetyltransferase (CAT); details: IAA-induced extracts
Description: The resistant colonies are isolated and subcultured several times on the selection medium in order to confirm their resistance phenotype. The clones selected at this stage are then subjected to a series of analyses: (i) extraction of the plasmid (Qiagen kit, Hilden, Germany) and sequencing of the region covering the RBS, (ii) culturing in Erlenmeyer flasks with induction by IAA and then estimation of the level of CAT expression by ELISA assay, (iii) electrophoresis, by SDS-PAGE, of the total proteins extracted from the preceding cultures and staining with Coomassie Blue to visualize total intracellular proteins. The clones are sequenced using the Dye Terminator kit on an ABI 373A sequencer (Perkin Elmer Applied Biosystems, Foster City, Calif.). The cultures in Erlenmeyer flasks are prepared by seeding 25 ml of TSBY (30 g/l tryptic soy broth (DIFCO)+5 g/l yeast extract (Difco)) medium+8 mg/l tetracycline with a colony on a dish or with a bacterial suspension stored at −80° C. Each preculture is incubated on a platform shaken at 200 rpm, at 37° C. overnight. A fraction is transferred into 50 ml of the same medium so as to reach an initial optical density equal to 1. […] The total proteins contained in the I and S fractions are analyzed by electrophoresis under denaturing conditions (SDS-PAGE) and staining with Coomassie Blue.

TOP10 x pTEXCAT bacteria = test: Chloramphenicol resistance of TOP10 x pTEXCAT bacteria on agar dishes, colony count and growth; format: cell-based, E. coli; parameters: key to qualitative criterion of colony growth: −: absence of growth; +++: maximum growth; details: for number of colonies counted: 18 h at 37° C., approximately 100 cells seeded
Description: The libraries are screened based on the hypothesis that the clones overexpressing the CAT enzyme will have increased resistance to chloramphenicol.
The numbers (upper row) indicate the number of colonies counted after incubation for 18 h at 37° C., each medium having been seeded with approximately 100 cells.
The index of the lower row is a qualitative criterion of colony growth (−=absence of growth to +++=maximum growth).
This implies that clones which overproduce CAT due to an optimized RBS region may either develop more rapidly than the wild-type population at a chloramphenicol concentration lower than the MIC (mininimum inhibitory concentration), or develop in the presence of chloramphenicol concentrations which are lethal for the wild-type population.

[3] = chloramphenicol 200 μg/ml, IAA = 0
[4] = chloramphenicol 200 μg/ml, IAA = 25 μg/ml
[5] = chloramphenicol 300 μg/ml, IAA = 25 μg/ml
[6] = chloramphenicol 600 μg/ml, IAA = 0
[7] = chloramphenicol 600 μg/ml, IAA = 25 μg/ml
[8] = chloramphenicol 700 μg/ml, IAA = 0
[9] = chloramphenicol 700 μg/ml, IAA = 25 μg/ml
[10] = chloramphenicol 800 μg/ml, IAA = 0
[11] = chloramphenicol 800 μg/ml, IAA = 25 μg/ml

Compound: pTEX12′: vector derived from pTEX9′, initiation codon directly upstream of the cloning site, SEQ ID No. 37 (DNA UGAGGAGAGUAAUCAUGGAAUUC)
- CAT expression [1]: 155

Compound: pTEXCAT: wild-type reference plasmid: pTEXmp18 (Ptrp promoter, TrpL leader) with the CAT reporter gene cloned at EcoRI/PstI; SEQ ID No. 19 (DNA AAGGGUAUCUAGAAUUAUGAAAGCAAUUUUCGUACUGAAUGCGGAAUUC)
- CAT expression [1]: 1
- Level of CAT expression ([1]; relative, level 1 arbitrarily assigned to pTEXCAT, mean±standard deviation of two independent experiments): 1
- CAT band (28 kDa) on SDS-PAGE gel [2]: only a band of low intensity

Compound: O=C(N[C@H](CO)[C@H](O)c1ccc([N+](=O)[O-])cc1)C(Cl)Cl [Chloramphenicol, chloramphenicol]
- qualitative criterion of colony growth (TOP10 x pTEXCAT bacteria; [3]): +++
- number of colonies counted (TOP10 x pTEXCAT bacteria; [3]): 91
- qualitative criterion of colony growth (TOP10 x pTEXCAT bacteria; [4]): +++
- number of colonies counted (TOP10 x pTEXCAT bacteria; [4]): 65
- number of colonies counted (TOP10 x pTEXCAT bacteria; chloramphenicol 300 μg/ml, IAA = 0): 74
- qualitative criterion of colony growth (TOP10 x pTEXCAT bacteria; [5]): +++
- number of colonies counted (TOP10 x pTEXCAT bacteria; [5]): 76
- number of colonies counted (TOP10 x pTEXCAT bacteria; chloramphenicol 400 μg/ml, IAA = 0): 73
- number of colonies counted (TOP10 x pTEXCAT bacteria; chloramphenicol 400 μg/ml, IAA = 25 μg/ml): 53
- number of colonies counted (TOP10 x pTEXCAT bacteria; chloramphenicol 500 μg/ml, IAA = 0): 47
- number of colonies counted (TOP10 x pTEXCAT bacteria; chloramphenicol 500 μg/ml, IAA = 25 μg/ml): 71
- qualitative criterion of colony growth (TOP10 x pTEXCAT bacteria; [6]): −
- number of colonies counted (TOP10 x pTEXCAT bacteria; [6]): 0
- qualitative criterion of colony growth (TOP10 x pTEXCAT bacteria; [7]): −
- number of colonies counted (TOP10 x pTEXCAT bacteria; [7]): 1
- qualitative criterion of colony growth (TOP10 x pTEXCAT bacteria; [8]): −
- number of colonies counted (TOP10 x pTEXCAT bacteria; [8]): 0
- qualitative criterion of colony growth (TOP10 x pTEXCAT bacteria; [9]): −
- number of colonies counted (TOP10 x pTEXCAT bacteria; [9]): 0
- qualitative criterion of colony growth (TOP10 x pTEXCAT bacteria; [10]): −
- number of colonies counted (TOP10 x pTEXCAT bacteria; [10]): 0
- qualitative criterion of colony growth (TOP10 x pTEXCAT bacteria; [11]): −
- number of colonies counted (TOP10 x pTEXCAT bacteria; [11]): 0

Compound: O=C(O)C=Cc1c[nH]c2ccccc12 [IAA, 3-β indole acrylic acid]
- development of TOP10 x pTEXCAT bacteria in the presence of IAA versus its absence (TOP10 x pTEXCAT bacteria; between 300 and 600 μg/ml of chloramphenicol): more strongly

Compound: pTEX10′: vector derived from pTEX9′ with additional deletion, SEQ ID No. 33 (DNA UGAGGAGAGUAAUCAUGAAAGCAGAAUUC)
- CAT expression [1]: 253

Compound: pTEX9′: clone from the (R7N6) library, SEQ ID No. 31, deletion of region Ile4Asn8 (DNA UGAGGAGAGUAAUCAUGAAAGCAGCGGAAUUC; expressed or natural sequence)
- CAT expression [1]: 249

Compound: pTEX11′: vector derived from pTEX9′ with additional deletion, SEQ ID No. 35 (DNA UGAGGAGAGUAAUCAUGAAAGAAUUC)
- CAT expression [1]: 124
